From ChEMBL document CHEMBL1146186, “Synthesis and biological evaluation of type VI beta-turn templated RGD peptidomimetics” (Bioorg Med Chem Lett, 2006)

Legend:
[1] = molecular target: Integrin alpha-V/beta-5 (Homo sapiens) (UniProt P06756+P18084); test: Inhibition of alpha-V-beta-5 receptor; assay type: protein-complex assay
[2] = molecular target: Integrin alpha-V/beta-3 (Homo sapiens) (UniProt P05106+P06756); test: Inhibition of alpha-V-beta-3 receptor; assay type: protein-complex assay

Row | Compound | Activity [1] [µM] | Activity [2] [µM]
1 | N=C(N)NCCC[C@@H]1NC(=O)[C@@H]2CCCC[C@@H](NC(=O)[C@H](CC(=O)O)NC(=O)CNC1=O)C(=O)N2 | > 5 | 0.615
2 | N=C(N)NCCC[C@@H]1NC(=O)[C@H]2C/C=C\C[C@H](NC(=O)[C@H](CC(=O)O)NC(=O)CNC1=O)C(=O)N2 | 0.538 | 0.159
3 | N=C(N)NCCC[C@@H]1NC(=O)[C@@H]2C/C=C\C[C@@H](NC(=O)[C@H](CC(=O)O)NC(=O)CNC1=O)C(=O)N2 | > 5 | 0.925
4 | N=C(N)NCCC[C@@H]1NC(=O)[C@H]2CCCC[C@H](NC(=O)[C@H](CC(=O)O)NC(=O)CNC1=O)C(=O)N2 | > 5 | 0.28
